Assay results: patent US6552073B1, “Compounds and methods of treating cell proliferative diseases” (Exonhit Therapeutics SA, priority 2002, dated 2003)
Entries after “also recorded” stand apart in the source; their conditions may differ.

Columns and labels:
MDA-MB-231 cells = experiment: Matrigel invasion assay (Boyden chamber); format: cell-based, human; details: MDA-MB-231, Boyden chamber, matrigel
Protocol: d) Migration and Matrigel Invasion Assay
Chemoinvasion assay was performed in Boyden chamber as described by Albini et al (Cancer Res, 1987) with some modifications. Polycarbonate membranes with 8μm pores were coated with matrigel (125 μg/cm^2) at room temperature for 48 h. Two hours before experiments, the matrix was […] with serum-free medium containing 0.1% BSA.
One day after seeding, 10^6 MDA-MB-231 cells were treated overnight with different concentrations of compounds (1, 10, 17.5, 25 and 50 μM). Cells were collected with Versene (Invitrogen), counted with trypan blue exclusion, rinsed twice in serum-free medium containing 0.1% BSA and resuspended in serum-free medium containing 0.1% BSA plus the appropriate concentration of compound. 10^5 treated cells were placed in the upper chamber. Medium containing 10% of FBS plus the appropriate concentration of compound was placed in the lower chamber as a chemoattractant. The Boyden chamber was incubated 6 hours at 37° C. before the cells were fixed and stained with Diff-Quick (Dade-Berhing). Cells on the upper part of the filters were removed using a cotton swab. Cells on the underside of the filters were visualised and counted under light microscope. The migration assay was performed the same way, using non-coated filters.

MDA231 = experiment: Cytoskeleton analysis, actin staining; format: cell-based, human
Protocol: (§1) Since major rearrangements of cytoskeleton are observed in tumor cells and since the small GTPases are known to regulate these events, analysis of actin cytoskeleton was performed. Subconfluent cells seeded onto coverslips were treated with different concentration of compound (1, 10, 17.5, 25 and 50 μM) or vehicle for 24 h, before being fixed in 4% formaldehyde for 15 min., permeabilized in 0.2% Triton X100 for 5 minutes and incubated in PowerBlock (Biogenex) for 10 min. Actin filaments were stained with 0.5 μg/ml fluorescein isothiocyanate (FITC)-labelled phalloidin for 1 hour. Analysis was performed using an inverted fluorescent microscope.

[1] = system: NIH3T3 cells transfected with RasV12; experiment: Colony formation assay in the presence of constitutively activated Ras (RasV12); format: cell-based, mouse; parameters: key to Colony formation: −: no effect of the compound was observed; +: an effect of the compound was observed; details: NIH3T3, neoR colonies
Protocol: c) Ras/Rac-dependant Signaling Pathway Analysis
The impact of the compounds on Ras and Rac signaling pathways was analysed with two reporter systems described by Imler (Nature 1988) and Lin (Science, 1995) respectively on one hand, and by a colony formation assay in the presence of constitutively activated Ras (RasV12) and Rac (RacV12) on the other hand. For this latter experiment, fifty percent confluent NIH3T3 cells in a 10 cm diameter petri dish were transfected with 0.5 μg pSV2-RasV12 or 0.5 μg pEXV RacV12 plasmids plus 100 ng of pSV2-neomycin plasmid using Lipofectamine-Plus reagent (Invitrogen) according to the manufacturer's instructions. Forty-eight hours later, cells were trypsinised, splitted to 1/3, and incubated in the presence of complete medium supplemented with 400 μg/ml geneticin (Invitrogen) and different doses of compound (1, 10, 17.5, 25 and 50 μM) until emerging resistant clones appear (2-3 weeks). The medium was renewed every 3 days. Colonies with a minimum of 50 cells were counted after staining with Fuschin 2%.

NIH3T3 = experiment: Cytoskeleton analysis, actin staining; format: cell-based, mouse
Protocol: as §1

Compound | melting point [°C] | also measured
O=C(O)c1cc(=O)c(OCCCCCOc2ccc(Cl)c(Cl)c2)co1 [EH6600, 5-[5-(3,4-Dichlorophenyloxy)pentyloxy]-4-oxo-4H-pyran-2-carboxylic acid] | 159 to 161 | 
C/C=C/c1oc(C(=O)O)cc(=O)c1OCCCCCOc1cccc(Cl)c1 [EH18401, (E)-3-[5-(3-Chlorophenyloxy)pentyloxy]-2-(propen-1-yl)-4-oxo-4H-pyran-6-carboxylic acid] | 116 to 117 | 
O=C(O)c1cc(=O)c(OCCCCCOc2cccc(Cl)c2)co1 [EH15700, 5-[5-(3-Chlorophenyloxy)pentyloxy]-4-oxo-4H-pyran-2-carboxylic acid] | 160 to 161 | 
CCOc1ccccc1OCCCCCOc1coc(CO)cc1=O [EH18601, 5-[5-(2-Ethyloxyphenyloxy)pentyloxy]-2-(hydroxymethyl)-4H-pyran-4-one] | 75 to 76 | Invasion (MDA-MB-231 cells): No significant effect
CCCc1c(OCCCCCCOc2coc(CO)cc2=O)ccc(Cl)c1Cl [EH16701, 5-[6-(3,4-Dichloro-2-propylphenyloxy)hexyloxy]-2-(hydroxymethyl)-4H-pyran-4-one] | 86 to 87 | Cell architecture modification, actin staining MDA231, general observation (MDA231): cell spreading; Invasion (MDA-MB-231 cells): No significant effect
CCCc1c(OCCCCCCCOc2coc(CO)cc2=O)ccc(Cl)c1Cl [EH17701, 5-[7-(3,4-Dichloro-2-propylphenyloxy)heptyloxy]-2-(hydroxymethyl)-4H-pyran-4-one] | 62 to 64 | Cell architecture modification, actin staining MDA231, general observation (MDA231): cell spreading
O=c1cc(CO)occ1OCCCCOc1ccc(Cl)c(Cl)c1 [EH17700, 5-[4-(3,4-Dichlorophenyloxy)butyloxy]-2-(hydroxymethyl)-4H-pyran-4-one] | 107 to 108 | Colony formation [1]: −
O=C(O)c1cc(=O)c(OCCCCCOc2ccc(Cl)cc2)co1 [EH17600, 5-[5-(4-Chlorophenyloxy)pentyloxy]-4-oxo-4H-pyran-2-carboxylic acid] | 154 to 156 | 
C/C=C/c1oc(CO)cc(=O)c1OCCCCCOc1ccccc1CCC [EH9301, (E)-6-(Hydroxymethyl)-2-(propen-1-yl)-3-[5-(2-propylphenyloxy)pentyloxy]-4H-pyran-4-one] | 67 to 68 | Colony formation [1]: −; Invasion (MDA-MB-231 cells): No significant effect
CCOc1ccccc1OCCCCCOc1coc(C(=O)O)cc1=O [EH4701, 5-[5-(2-Ethyloxyphenyloxy)pentyloxy]-4-oxo-4H-pyran-2-carboxylic acid] | 141 to 142 | 
O=c1cc(COCc2ccccc2)occ1OCCCCCOc1ccc(Cl)c(Cl)c1 [EH7701, 2-(Benzyloxymethyl)-5-[5-(3,4-dichlorophenyloxy)pentyloxy]-4H-pyran-4-one] | 82 to 83 | Cell architecture modification, actin staining MDA231, general observation (MDA231): cell spreading; Invasion (MDA-MB-231 cells): No significant effect
C/C=C/c1oc(C(=O)O)cc(=O)c1OCCCCCOc1ccc(Cl)c(Cl)c1 [EH10501, (E)-3-[5-(3,4-Dichlorophenyloxy)pentyloxy]-2-(propen-1-yl)-4-oxo-4H-pyran-6-carboxylic acid] | 118 to 119 | 
C/C=C/c1oc(CO)cc(=O)c1OCCCCCOc1cccc(Cl)c1 [EH16201, (E)-3-[5-(3-Chlorophenyloxy)pentyloxy]-6-(hydroxymethyl)-2-(propen-1-yl)-4H-pyran-4-one] | 50 to 51 | 
C/C=C/c1oc(C(=O)O)cc(=O)c1OCCCCCOc1ccccc1CCC [EH15301, (E)-2-(Propen-1-yl)-3-[5-(2-propylphenyloxy)pentyloxy]-4-oxo-4H-pyran-6-carboxvlic acid] | 145 to 146 | 
O=c1cc(CO)occ1OCCCCCOc1cccc(Cl)c1 [EH10600, 5-[5-(3-Chlorophenyloxy)pentyloxy]-2-(hydroxymethyl)-4H-pyran-4-one] | 87 to 88 | Colony formation [1]: −; Cell architecture modification, actin staining NIH3T3, general observation (NIH3T3): affected the general morphology; also recorded: cell destructuration
C/C=C/c1oc(C(=O)O)cc(=O)c1OCCCCCOc1ccc(Cl)cc1 [EH17401, (E)-3-[-5-(4-Chlorophenyloxy)pentyloxy]-2-(propen-1-yl)-4-oxo-4H-pyran-6-carboxylic acid] | 136 to 137 | 
O=c1cc(CO)occ1OCCCCCOc1ccc(Cl)c(Cl)c1 [EH5500, 5-[5-(3,4-Dichlorophenyloxy)pentyloxy]-2-(hydroxymethyl)-4H-pyran-4-one] | 97 to 99 | Colony formation [1]: −; Cell architecture modification, actin staining NIH3T3, general observation (NIH3T3): affected the general morphology; also recorded: cell destructuration

Further lines, with some results ahead:

melting point [°C] | Compound | also measured
145 to 146 | CCCc1ccccc1OCCCCCOc1coc(C(=O)O)cc1=O [EH26900, 5-[5-(2-Propylphenyloxy)pentyloxy]-4-oxo-4H-pyran-2-carboxylic acid] | 
182 to 183 | O=C(O)c1cc(=O)c(OCCCCOc2ccc(Cl)c(Cl)c2)co1 [EH20700, 5-[4-(3,4-Dichlorophenyloxy)butyloxy]-4-oxo-4H-pyran-2-carboxylic acid] | 
100 to 101 | C/C=C/c1oc(CO)cc(=O)c1OCCCCCOc1ccc(Cl)c(Cl)c1 [EH30101] | 
161 to 162 | C/C=C/c1oc(C(=O)O)cc(=O)c1OCCCCCOc1ccc(Cl)c(Cl)c1CCC [EH22501, (E)-3-[5-(3,4-Dichloro-2-propylphenyloxy)pentyloxy]-2-(propen-1-yl)-4-oxo-4H-pyran-6-carboxylic acid] | 
125 to 126 | O=C(NCc1ccccc1)c1cc(=O)c(OCCCCCOc2ccc(Cl)cc2)co1 [EH28900, N-Benzyl-5-[5-(4-Chlorophenyloxy)pentyloxy]-4-oxo-4H-pyran-2-carboxamide] | 
84 to 85 | C/C=C/c1oc(CO)cc(=O)c1OCCCCCOc1ccc(Cl)cc1 [EH26101, (E)-3-[5-(4-Chlorophenyloxy)pentyloxy]-6-(hydroxymethyl)-2(propen-1-yl)-4H-pyran-4-one] | 
155 to 156 | CCCc1c(OCCCCCOc2coc(C(=O)O)cc2=O)ccc(Cl)c1Cl [EH27900, 5-[5-(3,4-Dichloro-2-propylphenyloxy)pentyloxy]-4-oxo-4H-pyran-2-carboxylic acid] | 
83 to 84 | CCCc1cc(Cl)c(Cl)cc1OCCCCCOc1coc(CO)cc1=O [EH30701, 5-[5-(4,5-Dichloro-2-propylphenyloxy)pentyloxy]-2-(hydroxymethyl)-4H-pyran-4-one] | Cell architecture modification, actin staining MDA231, general observation (MDA231): cell spreading
